Assay results published in PubChem BioAssay AID248 (DTP/NCI, 2004).
Several values for one entry are separate records, joined by “and”; a condition that tells them apart may be missing. Identical values can stand only once. Inconclusive results and toxic doses are left out. Rule as the data show it: active = T/C of 150% or more; inactive = T/C below 125%.

Test system: L1210 leukemia ip in BDF1 mice, survival T/C
Assay: NCI In Vivo Anticancer Drug Screen. Data for tumor model L1210 Leukemia (intraperitoneal) in B6D2F1 (BDF1) mice
Settings: endpoint: mean survival time, higher = longer survival
Summary of the method: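 Value reflects the ratio of survival in compound-treated mice to survival in vehicle-treated controls, with both groups carrying the same transplanted tumor.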

[1] = dose: 100.0 mg/kg/injection, schedule: Q04DX002 (ip), vehicle: saline with Tween-80
[2] = dose: 200.0 mg/kg/injection, schedule: Q04DX002 (ip), vehicle: saline with Tween-80
[3] = dose: 400.0 mg/kg/injection, schedule: Q04DX002 (ip), vehicle: saline with Tween-80
[4] = dose: 100.0 mg/kg/injection, schedule: Q04DX002 (ip), vehicle: saline
[5] = dose: 200.0 mg/kg/injection, schedule: Q04DX002 (ip), vehicle: saline
[6] = dose: 50.0 mg/kg/injection, schedule: Q01DX001 (ip), vehicle: carboxymethylcellulose (CMC)
[7] = dose: 100.0 mg/kg/injection, schedule: Q01DX001 (ip), vehicle: carboxymethylcellulose (CMC)
[8] = dose: 200.0 mg/kg/injection, schedule: Q01DX001 (ip), vehicle: carboxymethylcellulose (CMC)
[9] = dose: 400.0 mg/kg/injection, schedule: Q01DX001 (ip), vehicle: carboxymethylcellulose (CMC)

Measured: T/C

COc1cc(C=O)ccc1OC(=O)Nc1cc(C)ccc1C
inactive: dose: 25.0 mg/kg/injection, schedule: Q01DX009 (ip), vehicle: saline with Tween-80 100 % of control and 91 % of control | dose: 50.0 mg/kg/injection, schedule: Q01DX001 (ip), vehicle: saline with Tween-80 96 % of control | dose: 50.0 mg/kg/injection, schedule: Q01DX009 (ip), vehicle: saline with Tween-80 97 % of control and 101 % of control | dose: 100.0 mg/kg/injection, schedule: Q01DX001 (ip), vehicle: saline with Tween-80 97 % of control | [1] 91 % of control and 92 % of control | dose: 200.0 mg/kg/injection, schedule: Q01DX001 (ip), vehicle: saline with Tween-80 94 % of control and 92 % of control | [2] 94 % of control and 106 % of control | [3] 94 % of control and 92 % of control

O=C(Nc1ccc(Cl)cc1)Oc1ccc2ccccc2c1
inactive: dose: 100.0 mg/kg/injection, schedule: Q04DX003 (ip), vehicle: saline 103 % of control | dose: 200.0 mg/kg/injection, schedule: Q04DX003 (ip), vehicle: saline 92 % of control | dose: 400.0 mg/kg/injection, schedule: Q04DX003 (ip), vehicle: saline 97 % of control

COC1=NS(=O)(=O)N=C(N(C)C)O1
inactive: dose: 100.0 mg/kg/injection, schedule: Q01DX001 (ip), vehicle: Klucel (hydroxypropylcellulose) (HPC) 105 % of control | dose: 100.0 mg/kg/injection, schedule: Q04DX003 (ip), vehicle: Klucel (hydroxypropylcellulose) (HPC) 96 % of control | dose: 200.0 mg/kg/injection, schedule: Q01DX001 (ip), vehicle: Klucel (hydroxypropylcellulose) (HPC) 105 % of control | dose: 200.0 mg/kg/injection, schedule: Q04DX003 (ip), vehicle: Klucel (hydroxypropylcellulose) (HPC) 96 % of control | dose: 400.0 mg/kg/injection, schedule: Q01DX001 (ip), vehicle: Klucel (hydroxypropylcellulose) (HPC) 103 % of control | dose: 400.0 mg/kg/injection, schedule: Q04DX003 (ip), vehicle: Klucel (hydroxypropylcellulose) (HPC) 97 % of control

O=P(O)(O)CO
inactive: [4] 97 % of control and 87 % of control | [5] 86 % of control

NC(CCS)C(=O)O (stereo unspecified)
inactive: [4] 107 % of control | [5] 110 % of control | dose: 400.0 mg/kg/injection, schedule: Q04DX002 (ip), vehicle: saline 96 % of control

C=CC[P+](CCCC)(CCCC)CCCC
inactive: dose: 6.25 mg/kg/injection, schedule: Q04DX003 (ip), vehicle: saline 102 % of control | dose: 12.5 mg/kg/injection, schedule: Q04DX003 (ip), vehicle: saline 91 % of control

C#CCCCc1ccccc1
inactive: [6] 102 % of control | [7] 98 % of control | [8] 96 % of control | [9] 96 % of control

CCOC(=O)NC(=S)[S][Sb]([S]C(=S)NC(=O)OCC)[S]c1nc2ccc(N=Nc3ccc(NS(=O)(=O)c4ccc(NC(=O)C(Cl)Cl)cc4)cc3)cc2s1
inactive: dose: 100.0 mg/kg/injection, schedule: Q01DX001 (ip), vehicle: steriod suspending solution 95 % of control | dose: 200.0 mg/kg/injection, schedule: Q01DX001 (ip), vehicle: steriod suspending solution 105 % of control | dose: 400.0 mg/kg/injection, schedule: Q01DX001 (ip), vehicle: steriod suspending solution 92 % of control

O=C(O)CCCOc1cc(Cl)c(Cl)cc1Cl
inactive: [6] 88 % of control | dose: 50.0 mg/kg/injection, schedule: Q01DX009 (ip), vehicle: gum acacia 98 % of control | dose: 50.0 mg/kg/injection, schedule: Q04DX003 (ip), vehicle: gum acacia 96 % of control | [7] 88 % of control | dose: 100.0 mg/kg/injection, schedule: Q01DX009 (ip), vehicle: gum acacia 100 % of control | dose: 100.0 mg/kg/injection, schedule: Q04DX003 (ip), vehicle: gum acacia 96 % of control | dose: 200.0 mg/kg/injection, schedule: Q01DX009 (ip), vehicle: gum acacia 93 % of control | dose: 200.0 mg/kg/injection, schedule: Q04DX003 (ip), vehicle: gum acacia 104 % of control

CC(C)OC(=S)SCC(=O)O
inactive: dose: 100.0 mg/kg/injection, schedule: Q04DX003 (ip), vehicle: saline with Tween-80 97 % of control | dose: 200.0 mg/kg/injection, schedule: Q04DX003 (ip), vehicle: saline with Tween-80 93 % of control | dose: 400.0 mg/kg/injection, schedule: Q04DX003 (ip), vehicle: saline with Tween-80 93 % of control

O=C(Nc1ccc(F)cc1)Oc1ccc2ccccc2c1
inactive: [7] 103 % of control | dose: 100.0 mg/kg/injection, schedule: Q01DX009 (ip), vehicle: carboxymethylcellulose (CMC) 95 % of control and 97 % of control | dose: 100.0 mg/kg/injection, schedule: Q04DX002 (ip), vehicle: carboxymethylcellulose (CMC) 92 % of control and 98 % of control | [8] 94 % of control | dose: 200.0 mg/kg/injection, schedule: Q01DX009 (ip), vehicle: carboxymethylcellulose (CMC) 102 % of control and 90 % of control | dose: 200.0 mg/kg/injection, schedule: Q04DX002 (ip), vehicle: carboxymethylcellulose (CMC) 92 % of control and 102 % of control | [9] 97 % of control | dose: 400.0 mg/kg/injection, schedule: Q01DX009 (ip), vehicle: carboxymethylcellulose (CMC) 94 % of control and 90 % of control | dose: 400.0 mg/kg/injection, schedule: Q04DX002 (ip), vehicle: carboxymethylcellulose (CMC) 93 % of control

C/C(=N\NC(N)=O)C(F)(F)F
inactive: dose: 15.0 mg/kg/injection, schedule: Q01DX Z (ip), vehicle: carboxymethylcellulose (CMC) 110 % of control | dose: 30.0 mg/kg/injection, schedule: Q01DX Z (ip), vehicle: carboxymethylcellulose (CMC) 93 % of control | dose: 60.0 mg/kg/injection, schedule: Q01DX Z (ip), vehicle: carboxymethylcellulose (CMC) 100 % of control and 103 % of control | dose: 120.0 mg/kg/injection, schedule: Q01DX Z (ip), vehicle: carboxymethylcellulose (CMC) 103 % of control and 109 % of control | dose: 120.0 mg/kg/injection, schedule: Q01DX Z (oral), vehicle: carboxymethylcellulose (CMC) 109 % of control | dose: 240.0 mg/kg/injection, schedule: Q01DX Z (ip), vehicle: carboxymethylcellulose (CMC) 112 % of control | dose: 240.0 mg/kg/injection, schedule: Q01DX Z (oral), vehicle: carboxymethylcellulose (CMC) 101 % of control | dose: 480.0 mg/kg/injection, schedule: Q01DX Z (oral), vehicle: carboxymethylcellulose (CMC) 90 % of control

Cc1ccc(C(=NN=C(N)N)c2ccc(C)cc2)cc1
inactive: dose: 3.75 mg/kg/injection, schedule: Q01DX Z (ip), vehicle: saline 101 % of control | dose: 7.5 mg/kg/injection, schedule: Q01DX Z (ip), vehicle: saline 95 % of control | dose: 7.5 mg/kg/injection, schedule: Q01DX Z (oral), vehicle: saline 98 % of control | dose: 15.0 mg/kg/injection, schedule: Q01DX Z (ip), vehicle: saline 93 % of control and 94 % of control | dose: 15.0 mg/kg/injection, schedule: Q01DX Z (oral), vehicle: saline 96 % of control | dose: 30.0 mg/kg/injection, schedule: Q01DX Z (ip), vehicle: saline 104 % of control | dose: 30.0 mg/kg/injection, schedule: Q01DX Z (oral), vehicle: saline 101 % of control | dose: 60.0 mg/kg/injection, schedule: Q01DX Z (oral), vehicle: saline 101 % of control

CCCCCCCCCCCCCCCCC(C)(O)C#CC(C)(O)CCCCCCCCCCCCCCCC (stereo unspecified)
inactive: dose: 100.0 mg/kg/injection, schedule: Q01DX009 (ip), vehicle: other 101 % of control | [1] 101 % of control | dose: 200.0 mg/kg/injection, schedule: Q01DX009 (ip), vehicle: other 97 % of control | [2] 90 % of control | dose: 400.0 mg/kg/injection, schedule: Q01DX009 (ip), vehicle: other 101 % of control | [3] 97 % of control

CCN(CC)C(C)=O
inactive: dose: 50.0 mg/kg/injection, schedule: Q01DX001 (ip), vehicle: saline 87 % of control | dose: 200.0 mg/kg/injection, schedule: Q01DX001 (ip), vehicle: saline 86 % of control | dose: 400.0 mg/kg/injection, schedule: Q01DX001 (ip), vehicle: saline 86 % of control
